Data published in patent publication US11046672B2, “Indolinones compounds and their use in the treatment of fibrotic diseases” (RESPIVERT LIMITED, priority 2015, dated 2021).
Values joined by “and” are separate entries in the source; they are usually repeats but may differ in a detail not shown here. Identical values can stand only once. Like-named read-outs stand apart in the source and are kept apart here.

Key:
[1] = system: MRC5 cells; assay: Cell viability assay in MRC5 cells (MTT)
[2] = Pharmacokinetic measurements in rats (intravenous and intra-tracheal dosing); format: in vivo; conditions: rat; for concentration at 0.1 h / concentration at 1.5 h / concentration at 24 h / concentration at 6 h: lung, read-out: lung concentration (nM) at time (h)
[3] = PAMPA permeability assay; format: in vitro ADME; conditions: for Papp at 5 h, 10 μM: pH 7, pH 7, 10 μM
[4] = target: T1, PDGFRβ (Homo sapiens (Human), UniProt P09619); assay: Duration of action (washout) against PDGF-BB induced phosphorylation of PDGFRβ in human fetal lung fibroblast cells; format: cell-based; conditions: MRC-5 cells, after wash-out, rhuPDGF-BB; experiments in Groups 1-4
T1 sequence (P09619 33-1106): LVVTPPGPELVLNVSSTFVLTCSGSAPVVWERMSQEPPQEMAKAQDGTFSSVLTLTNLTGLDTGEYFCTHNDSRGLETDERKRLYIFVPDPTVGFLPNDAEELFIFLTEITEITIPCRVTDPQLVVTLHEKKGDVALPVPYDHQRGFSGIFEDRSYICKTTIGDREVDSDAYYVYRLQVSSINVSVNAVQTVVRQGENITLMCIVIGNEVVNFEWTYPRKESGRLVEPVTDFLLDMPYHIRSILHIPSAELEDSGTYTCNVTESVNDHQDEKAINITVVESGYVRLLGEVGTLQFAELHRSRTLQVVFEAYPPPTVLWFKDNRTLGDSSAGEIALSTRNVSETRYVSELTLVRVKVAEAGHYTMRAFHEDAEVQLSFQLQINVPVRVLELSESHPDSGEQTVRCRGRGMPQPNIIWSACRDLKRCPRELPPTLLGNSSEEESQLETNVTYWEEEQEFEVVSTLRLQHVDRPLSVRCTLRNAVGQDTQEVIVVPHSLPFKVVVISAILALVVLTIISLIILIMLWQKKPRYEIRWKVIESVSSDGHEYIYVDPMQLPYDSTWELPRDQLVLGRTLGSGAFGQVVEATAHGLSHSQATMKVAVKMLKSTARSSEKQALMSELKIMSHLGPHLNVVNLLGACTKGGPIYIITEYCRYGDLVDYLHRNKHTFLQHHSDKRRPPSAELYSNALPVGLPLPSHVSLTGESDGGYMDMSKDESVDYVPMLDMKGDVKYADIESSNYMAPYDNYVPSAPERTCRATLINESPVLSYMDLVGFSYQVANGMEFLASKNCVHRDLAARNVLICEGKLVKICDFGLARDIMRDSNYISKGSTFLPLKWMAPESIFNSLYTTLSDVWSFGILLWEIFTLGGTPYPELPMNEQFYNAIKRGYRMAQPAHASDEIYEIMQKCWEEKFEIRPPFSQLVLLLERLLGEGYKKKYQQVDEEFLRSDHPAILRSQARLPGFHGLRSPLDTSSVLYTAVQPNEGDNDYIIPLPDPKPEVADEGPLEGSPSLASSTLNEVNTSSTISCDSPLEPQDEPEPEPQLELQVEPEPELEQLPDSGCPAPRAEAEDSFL

[5] = target: T1, PDGFRβ; conditions: read-out: Ki PDGFRβ; mean, n = 2 unless otherwise indicated
[6] = target: T1, PDGFRβ; assay: PDGF-BB induced phosphorylation of PDGFRβ in fibroblasts (MRC5 cells, HTRF); format: cell-based; conditions: MRC5 cells; n = 1 unless otherwise indicated; read-out: PDGFBB-induced PDGFRβ phosphorylation in MRC5 cells (IC50)
[7] = male, CD, iv, i.v. dosing, 0.1 h
[8] = male, CD, iv, i.v. dosing, 1.5 h
[9] = male, CD, iv, i.v. dosing, 24 h
[10] = male, CD, other: intra-tracheal, i.t. dosing, 0.1 h
[11] = male, CD, other: intra-tracheal, i.t. dosing, 1.5 h
[12] = male, CD, other: intra-tracheal, i.t. dosing, 24 h
[13] = male, CD, lung/plasma, iv, i.v. dosing, 0.1 h, read-out: lung/plasma ratio at time(h)
[14] = male, CD, lung/plasma, iv, i.v. dosing, 1.5 h, read-out: lung/plasma ratio at time(h)
[15] = male, CD, lung/plasma, other: intra-tracheal, i.t. dosing, 0.1 h, read-out: lung/plasma conc ratio at time(h)
[16] = male, CD, lung/plasma, other: intra-tracheal, i.t. dosing, 1.5 h, read-out: lung/plasma conc ratio at time(h)

Row | Structure (SMILES) | Cell viability at 100 nM (%) [1] | Cell viability at 300 nM (%) [1] | Cell viability at 1000 nM (%) [1] | concentration at 0.1 h [2, 7] | concentration at 1.5 h [2, 8] | concentration at 24 h [2, 9] | concentration at 0.1 h [2, 10] | concentration at 1.5 h [2, 11] | concentration at 24 h [2, 12] | Kp at 0.1 h [2, 13] | Kp at 1.5 h [2, 14] | Kp at 0.1 h [2, 15] | Kp at 1.5 h [2, 16] | Lung conc i.t./i.v. Ratio at time (h) ([2]; 0.1 h) | Lung conc i.t./i.v. Ratio at time (h) ([2]; 1.5 h) | Lung conc i.t./i.v. Ratio at time (h) ([2]; 24 h) | BAL % administered dose at time (h) ([2]; i.t. dosing, 0.1 h) | BAL % administered dose at time (h) ([2]; i.t. dosing, 1.5 h) | BAL % administered dose at time (h) ([2]; i.t. dosing, 24 h) | BAL % administered dose at time (h) ([2]; i.v. dosing, 0.1 h) | also measured
1 | COC(=O)c1ccc2c(c1)NC(=O)/C2=C(\Nc1ccc(C(=O)NOCCN(C)C)cc1)c1ccccc1 [Example 3, (Z)-Methyl 3-(((4-((2-(dimethylamino)ethoxy)carbamoyl)phenyl)amino)(phenyl)methylene)-2-oxoindoline-6-carboxylate] | 106% | 85.4% | 67.2% | 719 nM | 325 nM | 28 nM | 6690 nM | 1680 nM | 247 nM | 126 | 315 | 176 | 1430 | 9.3 | 5.2 | 8.8 | 3% | 0.3% | 0.1% | 0.03% | Kp at 24 h ([2]; male, CD, lung/plasma, other: intra-tracheal, i.t. dosing, 24 h, read-out: lung/plasma conc ratio at time(h)): 503; MRT ([2]; male, CD, plasma, iv, i.v. dosing): 3 h; clearance ([2]; male, CD, plasma, iv, i.v. dosing (i.v. dose 0.1-0.5 per compound)): 285 mL/min/kg; Vd ([2]; male, CD, plasma, iv, i.v. dosing, read-out: Vss): 51 L/kg; half-life ([2]; male, CD, plasma, iv, i.v. dosing, read-out: t½ (converted)): 186 min; i.t. BAV (%) ([2]; i.t. dosing (i.t. dose 0.1-0.5 per compound)): 325%; BAL % administered dose at time (h) ([2]; i.v. dosing, 1.5 h): 0.02%; BAL % administered dose at time (h) ([2]; i.v. dosing, 24 h): BLQ; % Recovery ([3]; PAMPA, donor and acceptor compartments): 76% and 55.3%; Papp at 5 h, 10 μM ([3]; PAMPA, 5 hr): 0.0384 ×10⁻⁶ cm/s; Mean Papp ([3]; pH 7, 10 μM, 5 hr): 0.023 10^−6 cm s^−1; % phos: percentage phosphorylation after wash-out relative to maximal phosphorylation (100%) [4]: 34.6%; Ki [5]: 11.4 nM; IC50 [6]: 7.14 nM
2 | COC(=O)c1cc2c(cc1C)/C(=C(/Nc1ccc(C(=O)NOCCN3CCN(CCO)CC3)cc1)c1ccccc1)C(=O)N2 [Example 7, (Z)-Methyl 3-(((4-((2-(4-(2-hydroxyethyl)piperazin-1-yl)ethoxy)carbamoyl)phenyl)amino)(phenyl)methylene)-5-methyl-2-oxoindoline-6-carboxylate] | 90.7% | 98% | 86.8% | 329 nM | 172 nM | 30 nM | 2100 nM | 881 nM | 519 nM | 17 | 15 | 233 | 114 | 6 | 5 | 17 | 5.3% | 0.2% | 0.1% | BLQ | concentration at 6 h ([2]; male, CD, iv, 0.1 mg/kg, i.v. dosing, 6 h): 69 nM; concentration at 6 h ([2]; male, CD, other: intra-tracheal, i.t. dosing, 6 h): 1000 nM; Kp at 6 h ([2]; male, CD, lung/plasma, iv, 0.1 mg/kg, i.v. dosing, 6 h, read-out: lung/plasma ratio at time(h)): 10; Kp at 6 h ([2]; male, CD, lung/plasma, other: intra-tracheal, i.t. dosing, 6 h, read-out: lung/plasma conc ratio at time(h)): 114; Lung conc i.t./i.v. Ratio at time (h) ([2]; 6 h): 15; BAL % administered dose at time (h) ([2]; i.t. dosing, 6 h): 0.3%; BAL % administered dose at time (h) ([2]; i.v. dosing, 1.5 h): BLQ; BAL % administered dose at time (h) ([2]; i.v. dosing, 6 h): BLQ; BAL % administered dose at time (h) ([2]; i.v. dosing, 24 h): BLQ; recovery at 5 hr, 10 μM ([3]; PAMPA, pH 7, PAMPA, donor and acceptor compartments): 58.1%; Papp at 5 h, 10 μM ([3]; PAMPA, 5 hr): 0.0245 ×10⁻⁶ cm/s; % phos: percentage phosphorylation after wash-out relative to maximal phosphorylation (100%) [4]: 84.7%; Ki [5]: 6.6 nM; IC50 [6]: 10.4 nM
